Data taken from patent US20030125269A1, “T-TYPE CALCIUM CHANNEL” (priority 1998, published 2003).
Entries after “also recorded” stand apart in the source; their conditions may differ. Where a name gives a salt, the structure may show the parent alone.

What was measured:
β-TC3 cells [1] = assay: Cytokine-induced DNA fragmentation in β-TC3 cells; type: cell-based, mouse; settings: β-TC3 cells (n=2); same results in NIT-1 cells (n=3)
NIT-1 cells [2] = assay: Spontaneous elevation of [Ca^2+]i in NIT-1 cells, Fluo-3 fluorescent imaging; type: cell-based, mouse; settings: 10 μM, 3.3 mM glucose, 10 minute observation
Procedure: NIT-1 cells were cultured in medium containing 3.3 mM glucose and preloaded with 2.5 μM Fluo-3 μM. The numbers of spontaneous calcium elevated cells were counted and compared to the total cells being used for a 10 minute observation period. 10 μM NiCl2 inhibited 90% of spontaneous elevation of basal Ca^2+.

HIT-T15 = assay: Glucose-induced insulin secretion in HIT-T15 cells; type: cell-based; settings: 11.1 mM glucose, variable concentrations of NiCl2
INS-1 cells [3] = assay: Glucose-induced insulin secretion in INS-1 cells; type: cell-based, rat; settings: 11.1 mM glucose, variable concentrations of NiCl2
INS-1 cells [4] = assay: Action potentials (excitability) of INS-1 cells; type: cell-based, rat; settings: 100 μM
Procedure: Particularly, activation of T type Ca^2+ channels will increase the firing frequency of the depolarizing spikes mediated by opening L type Ca^2+ channels (FIG. 19A). Activation of T type Ca^2+ channel will also decrease the time of developing action potential elicited by up-threshold depolarizations (FIG. 19B).
To further establish that T type Ca^2+ current enhances β-cells excitability, 100 μM NiCl2 was administered to effectively block T type Ca^2+ channels.

T-type Ca^2+ current [5] = molecular target: T-type Ca^2+ current (Rattus norvegicus, UniProt O54898); assay: Patch clamp recording of T-type Ca^2+ current in insulin-secreting (INS-1) cells; type: cell-based; settings: for reversibility of the inhibition of T-type Ca^2+ current: small volume delivered near the cell
Procedure: (§1) Cell Culture—INS-1 cells were cultured in RPMI 1640 medium containing 10% FBS, 25 U/ml penicillin, […] streptomycin and 50 μM mercaptoethanol in an atmosphere of 5% CO2 in air, at 37° C. for 2-5 days before recording.
(§2) β-cells Electrophysiological recording—The whole-cell recordings were carried out by the standard “giga-seal” patch clamp technique (Hamill et al.). The whole-cell recording pipettes were made of hemocapillaries (Warner), pulled by a two-stage puller (PC-10, Narishige International, New York, N.Y.), and heat polished with a microforge (MF200-1, World Precision Instruments, Sarasota, Fla.) before use. Pipette resistance was in the range of 2-5 MΩ in the internal solution. The recordings were performed at room temperature (22-25° C.). Currents were recorded using an EPC-9 patch-clamp amplifier (HEKA) and filtered at 2.9 kHz. Data were acquired with Pulse/PulseFit software (HEKA). Voltage-dependent currents were corrected for linear leak and residual capacitance by using an on-line P/n subtraction paradigm.
(§3) Solutions—The extracellular solution used in whole-cell Ca^2+ current recording contained (in mM): 10 CaCl21 110 tetraethylammonium-Cl (TEA-Cl), 10 CsCl, 10 N-2-hydroxyethylpiperazine-N′-2-ethanesulfonic acid (HEPES), 40 sucrose, 0.5 3,4-diaminopyridine, pH 7.3. The intracellular solution contained (in mM): 130 N-methyl-D-glucamine, 20 EGTA (free acid), 5 bis (2-aminophenoxy) ethane-N,N,N′,N′-tetraacetate (BAPTA), 10 HEPES, 6 MgCl2, 4 Ca(OH)2/pH was adjusted to 7.4 with methanesulfonate. 2 mM Mg-ATP was included in the pipette solution to minimize rundown of L-type Ca^2+ currents. For Perforated-patch recording, the extracellular solution contained (in mM): 26 Sucrose, 30 TEA-Cl, 10 HEPES, 5 KCl, 2 CaCl2, MgCl2, pH 7.3. The pipette solution contained (in mM): 65 CsOH, 65 CsMS, 20 sucrose, 10 HEPES, 10 MgCl2, 1 Ca(OH)2, pH 7.4.
(§4) The T-type Ca^2+ current was measured at −30 mV when the membrane was held at −90 mV and the L-type current was measured at +20 mV when the membrane was held at −40 mV. The currents were measured twice at each concentration of mibefradil with 2 min in between measurements.
(§5) A drug diffusing system was then used to test the reversibility of the antagonism of T- and L-type Ca^2+ currents by mibefradil. Small volumes (approximately 2 μl) of drugs were delivered in close proximity to the recording cell with a quartz capillary positioned by a micromanipulator. After administration, drugs diffused throughout the entire recording chamber containing 2 ml of bath solution. This drug diffusing system was used to test the reversibility of 30 μM of NiCl2 on the T-type Ca^2+ currents (FIG. 4).

LVA Ca^2+ current = assay: Cytokine-induced LVA Ca^2+ current in primary cultured mouse islet cells; type: cell-based; settings: 10 μM; IL-1β 25 U/ml and IFNγ 300 U/ml for 6 h; n=4
Procedure: The effects of chronic cytokine treatment on the voltage-sensitive Ca^2+ currents in primary cultured mouse islet cells was examined. After treatment with IL-1β (25 U/ml) and IFNγ (300 U/ml) for 6 h, an LVA Ca^2+ current was induced in these cells (FIG. 23A). This current was present in 48% of cytokine-treated mouse islet cells. No such current was observed when the cells were treated with either IL-1β or IFNγ alone. […] This LVA current has not been observed in non-treated cells. […] It has been reported that low concentration of NiCl2 selectively block LVA current, a profound […] in Ca^2+ current density was observed over the voltages between −20 and 20 mV.

β-TC3 cells [6] = assay: Cytokine-induced cell death in β-TC3 cells; type: cell-based, mouse; settings: NiCl2 20 μM, nifedipine 10 μM; IL-1β 25 U/ml, IFNγ 100 U/ml, TNFα 100 U/ml
Text: The function of LVA Ca^2+ channels in cytokine-mediated cell death in β-TC3 cells was then examined.

mouse islet cells = assay: Cytokine-induced increase in basal [Ca^2+]i in primary cultured mouse islet cells; type: cell-based; settings: 10 μM; IL-1β 25 U/ml and IFNγ 300 U/ml for 6 h
Text: LVA Ca^2+ channels are activated at low membrane potentials. This unique feature may allow then to regular [Ca^2+]i under nonstimulatory conditions. Indeed, basal [Ca^2+]i in cytokine-treated cells was approximately 3-fold higher than in nontreated cells (FIG. 24A).

INS-1 cells [7] = assay: Transient spontaneous calcium spikes in a single INS-1 cell, epi-fluorescence; type: cell-based, rat; settings: 30 μM, bath solution without glucose
Text: The cellular mechanism of the spontaneous elevation of intracellular Ca^2+ was investigated with the epi-fluorescence measurement method. […] The Role of T-type Ca^2+ channels in this spontaneous process was examined as well. […] These spontaneous calcium spikes may contribute to basal insulin secretion and control of basal [Ca^2+]i.

INS-1 cells [8] = assay: Basal [Ca^2+]i in INS-1 cells by fura-2 fluorescence; type: cell-based, rat
Procedure: [Ca^2+]i was directly measured by the ratio of fluorescence excitations at Ca^2+-bound […], and then the ratio was converted to the calcium concentration. The bath solution contained […], 4 mM KCl, 2 mM CaCl2, and 2 mM MgCl2.
The effect of basal [Ca^2+]i on Ca^2+ influx was examined using the Ca^2+ dye indicator fura-2 and fluorescence measurements. Voltage-dependent Ca^2+ influx in a single cell was obtained by perfusion of an osmotically balanced solution containing 50 mM KCl into the recording chamber. […] The resting basal [Ca^2+]i in INS-1 cells was approximately 60-80 nM under the experimental conditions. [Ca^2+]i was determined by a standard curve obtained from a fura-2 calcium imaging kit (Molecule Probes). The empirical Kd obtained for calcium binding to fura-2 in the system was 296±20 nM. When basal [Ca^2+]i remains low, subsequent voltage stimulation with 50 KCl induces rapid and large calcium influx into the cell and these calcium changes are stereotyped upon repetitive stimulation when basal calcium is restored (FIG. 10). In this experiment, following the 50 KCl depolarization, the cell was repolarized by perfusion of the original 5 mM KCl solution. After repolarization, basal [Ca^2+]i slowly reset and then a second 50 KCl depolarization induced a similar [Ca^2+]i transient. When the basal calcium is not allowed to reset, a defect in the second voltage induced calcium transient occurs (FIG. 11). […] Therefore effectors of basal [Ca^2+]i will have important impact on the amount of calcium that can enter the cell.

L-type Ca^2+ current = assay: Patch clamp recording (whole-cell and perforated patch) of L-type Ca^2+ current in insulin-secreting (INS-1) cells; type: cell-based, rat; settings: for effect on L-type Ca^2+ current from inside of cells: 1 μM in the pipette solution, 5 min after patch formation
Procedure: as §1, §2, §3, §4, §5
This hypothesis was tested by applying a very low dose of mibefradil on cells and recording the L-type Ca^2+ currents for a long time in the perforated patch-clamp configuration.

[9] = rat; cited from earlier work
T-type Ca^2+ current [10] = settings: vascular smooth muscle cells; cited from earlier work
NIT-1 cells [11] = assay: Basal insulin secretion in NIT-1 cells; type: cell-based, mouse; settings: 5 μM mibefradil, 3 mM glucose
Text: NIT-1 is a cell line derived from the β-cells of non-obese-diabetic mouse. This cell line expressed high levels of T-type Ca^2+ current.

[12] = Mass spectrometric analysis of mibefradil and dm-mibefradil in INS-1 cells
Procedure: Mass Spectrometric Analysis—A VG 70-250 SEQ instrument (VG Analytical, Manchaster, UK) was used with fast atom bombardment (FAB) ionization mode to obtain mass spectra of the mibefradil and dm-mibefradil. Cultured INS-1 cells were treated with 20 μM mibefradil for various lengths of time under each experimental condition. The cell pellets were collected after washing three times with PBS and resuspended in 0.5 ml media for mass spectrometric analysis. For a 50 μl cell sample, 20 μl internal standard solution (40 μM verapamil, MW: 454) and 5 μl glycerol was added, and 4 μl of this mixture was used for FAB-MS. Several positive ion spectra were recorded in the mass range m/z 750-100 at a mass resolution of 1000, and a scan speed of 2 second/decade. For mibefradil, m/z 496 was the dominant ion (M+H)^+ accompanied with a less intense sodiated molecular ion m/z 518. The concentrations of the mibefradil and hydrolyzed mibefradil were obtained by comparing the intensities of m/z 496 and 424 were to the intensity of m/z 455. For calibration, a standard solution of 50 μM drug was subjected to mass spectrometric analysis.
To test the hypothesis that mibefradil may permeate through the cell membrane to the cytoplasm and be trapped inside cells, the presence of mibefradil was examined in cells pre-incubated with 20 μM of mibefradil using mass spectrometry. […] The localization of mibefradil in cells was examined by measuring the concentration of mibefradil in the pellets and supernatants after lysis of the cells.

NIT-1 cells [13] = assay: Cytokine-induced cell death in NIT-1 cells; type: cell-based, mouse
[14] = cells pre-incubated with 20 μM mibefradil
[15] = 5 mM for 1 hour, followed by 3 hour recovery

T-type Ca^2+ current (Rattus norvegicus, UniProt O54898), sequence (O54898 whole entry): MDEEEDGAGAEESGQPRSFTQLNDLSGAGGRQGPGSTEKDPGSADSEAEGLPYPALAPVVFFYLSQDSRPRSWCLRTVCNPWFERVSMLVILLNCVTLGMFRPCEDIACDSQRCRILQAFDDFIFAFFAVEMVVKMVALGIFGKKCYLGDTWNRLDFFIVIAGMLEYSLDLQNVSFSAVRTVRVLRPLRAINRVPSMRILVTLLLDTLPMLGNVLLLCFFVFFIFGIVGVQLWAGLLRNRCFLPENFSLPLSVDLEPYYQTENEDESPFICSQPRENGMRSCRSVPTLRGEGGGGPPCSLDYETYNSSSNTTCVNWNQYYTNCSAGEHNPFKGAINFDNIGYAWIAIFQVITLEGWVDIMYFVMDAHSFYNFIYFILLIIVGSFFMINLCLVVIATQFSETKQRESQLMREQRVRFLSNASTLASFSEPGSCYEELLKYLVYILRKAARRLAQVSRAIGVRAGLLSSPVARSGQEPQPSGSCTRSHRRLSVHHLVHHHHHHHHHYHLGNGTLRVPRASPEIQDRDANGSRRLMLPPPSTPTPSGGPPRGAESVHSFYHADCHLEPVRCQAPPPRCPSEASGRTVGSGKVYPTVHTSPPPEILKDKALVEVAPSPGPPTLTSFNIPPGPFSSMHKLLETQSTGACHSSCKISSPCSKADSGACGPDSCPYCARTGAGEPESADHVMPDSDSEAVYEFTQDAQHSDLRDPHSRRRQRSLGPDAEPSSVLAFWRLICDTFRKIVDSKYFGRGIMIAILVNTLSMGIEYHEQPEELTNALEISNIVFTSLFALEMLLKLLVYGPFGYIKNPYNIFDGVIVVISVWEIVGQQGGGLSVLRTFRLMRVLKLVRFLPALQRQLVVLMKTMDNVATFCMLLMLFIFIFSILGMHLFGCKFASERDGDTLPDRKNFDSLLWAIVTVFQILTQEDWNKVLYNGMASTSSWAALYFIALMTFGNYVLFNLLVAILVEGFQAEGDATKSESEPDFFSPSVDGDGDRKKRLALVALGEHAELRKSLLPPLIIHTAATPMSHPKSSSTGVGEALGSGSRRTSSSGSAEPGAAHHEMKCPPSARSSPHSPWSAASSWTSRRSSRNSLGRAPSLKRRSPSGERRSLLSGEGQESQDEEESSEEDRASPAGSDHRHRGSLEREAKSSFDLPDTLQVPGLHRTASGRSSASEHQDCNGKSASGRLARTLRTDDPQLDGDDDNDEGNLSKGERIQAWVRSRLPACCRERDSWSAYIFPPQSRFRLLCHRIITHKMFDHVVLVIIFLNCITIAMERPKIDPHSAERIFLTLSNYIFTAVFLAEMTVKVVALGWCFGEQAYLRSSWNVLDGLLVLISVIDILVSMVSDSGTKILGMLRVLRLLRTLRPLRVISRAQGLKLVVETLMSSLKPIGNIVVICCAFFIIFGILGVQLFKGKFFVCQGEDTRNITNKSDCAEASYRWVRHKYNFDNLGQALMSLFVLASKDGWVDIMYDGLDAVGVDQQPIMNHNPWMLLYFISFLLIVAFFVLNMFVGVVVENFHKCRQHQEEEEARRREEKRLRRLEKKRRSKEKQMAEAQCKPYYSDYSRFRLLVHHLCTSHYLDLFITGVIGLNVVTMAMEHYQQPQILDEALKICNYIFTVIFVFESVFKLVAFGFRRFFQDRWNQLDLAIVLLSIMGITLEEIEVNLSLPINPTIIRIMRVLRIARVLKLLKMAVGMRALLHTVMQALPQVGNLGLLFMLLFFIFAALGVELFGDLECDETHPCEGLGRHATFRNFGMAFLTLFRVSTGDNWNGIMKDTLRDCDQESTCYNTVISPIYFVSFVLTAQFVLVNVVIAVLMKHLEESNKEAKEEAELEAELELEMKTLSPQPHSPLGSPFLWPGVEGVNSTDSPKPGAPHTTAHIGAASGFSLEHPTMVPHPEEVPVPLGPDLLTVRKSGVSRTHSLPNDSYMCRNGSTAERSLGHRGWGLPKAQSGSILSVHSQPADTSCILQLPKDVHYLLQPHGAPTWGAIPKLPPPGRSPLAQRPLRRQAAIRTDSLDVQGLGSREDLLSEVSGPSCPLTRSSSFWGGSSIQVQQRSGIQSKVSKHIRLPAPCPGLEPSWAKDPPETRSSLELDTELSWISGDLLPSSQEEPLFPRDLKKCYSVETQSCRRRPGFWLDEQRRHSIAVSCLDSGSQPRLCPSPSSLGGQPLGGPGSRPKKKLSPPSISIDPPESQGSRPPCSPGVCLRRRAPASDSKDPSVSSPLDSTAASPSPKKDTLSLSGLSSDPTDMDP

SMILES: N=C(N)NC(=O)c1nc(Cl)c(N)nc1N [amiloride]
- effect on cytokine-induced DNA fragmentation (β-TC3 cells [1]): prevented cytokine-induced DNA fragmentation

SMILES: [Cl][Ni][Cl] [NiCl2]
- inhibition of spontaneous elevation of basal Ca^2+ (NIT-1 cells [2]): 90%
- insulin secretion (HIT-T15): not affected
- insulin secretion (INS-1 cells [3]): reduced insulin secretion in a dose-dependent manner
- onset and number of action potentials (INS-1 cells [4]): a delay in the onset of an action potential and a decrease in number of action potentials
- amplitude of T-type current after drug delivery, % of initial level (T-type Ca^2+ current [5]; drug diffusing system, about 2 μl of 30 μM delivered near the cell, rapid reduction): 40%
- amplitude of T-type current after recovery, % of initial level (T-type Ca^2+ current [5]; drug diffusing system, about 2 μl of 30 μM, within 3 minutes): 80%
- reversibility of the inhibition of T-type Ca^2+ current (T-type Ca^2+ current [5]; drug diffusing system): reversibly block T type Ca^2+ current
- block of cytokine-induced LVA Ca^2+ current (LVA Ca^2+ current): blocked
- effect on cytokine-induced cell death (β-TC3 cells [6]): effectively reduced the β-cells killing potency of cytokines; also recorded: significantly reduced cell death
- effect on cytokine-induced increase in basal [Ca^2+]i (mouse islet cells): blocked; also recorded: prevented the increase in [Ca^2+]i
- effect on cytokine-induced DNA fragmentation (β-TC3 cells [1]): prevented cytokine-induced DNA fragmentation
- frequency of spontaneous calcium spikes (INS-1 cells [7]): reduced the frequency of spontaneous calcium spikes immediately; also recorded: reduced the frequency of transient spontaneous elevation of [Ca^2+]i

SMILES: COCC(=O)O[C@]1(CCN(C)CCCc2nc3ccccc3[nH]2)CCc2cc(F)ccc2[C@@H]1C(C)C [mibefradil, (1S,2S)-2-[2-[[3-(2-Benzimidazolyl)propyl]methyl-amino]ethyl]-6-fluoro-1,2,3,4-tetrahydro-1-isopropyl-2-napthyl methoxy-acetate dihydrochloride]
- effect on basal [Ca^2+]i (INS-1 cells [8]; 1 μM, single INS-1 cell with basal [Ca^2+]i near 150 nM, no glucose, dihydrochloride): immediately lowered the basal calcium; also recorded: reduced basal [Ca^2+]i
- long-term effect on the T-type Ca^2+ current (T-type Ca^2+ current [5]; 10 nM, perforated patch): no long-term effect
- block of T-type Ca^2+ current (T-type Ca^2+ current [5]; 1 μM in recording chamber, conventional whole cell patch clamp, dihydrochloride): blocks T- and L-type Ca^2+ current
- effect on T-type Ca^2+ current from inside of cells (T-type Ca^2+ current [5]; 1 μM in the pipette solution, whole-cell, 5 min after patch formation): did not have inhibitory effects
- sensitivity of T-type versus L-type Ca^2+ current (T-type Ca^2+ current [5]; 1 μM, pancreatic β-cells): more sensitive
- reversibility of the inhibition of T-type Ca^2+ current (T-type Ca^2+ current [5]; drug diffusing system, dihydrochloride): clearly reversible; also recorded: reversibly block T type Ca^2+ current
- time dependence of the inhibition of T-type Ca^2+ current (T-type Ca^2+ current [5]; whole-cell patch clamp, bath perfusion): No time-dependent inhibition
- relative L-type Ca^2+ currents (L-type Ca^2+ current; 10 nM mibefradil, after 25 minutes, perforated patch-clamp): 70%
- L-type current densities after incubation (L-type Ca^2+ current; 10 nM mibefradil, two hours incubation, perforated patches): further reduction of current densities
- effect on L-type Ca^2+ current from inside of cells (L-type Ca^2+ current; whole-cell): did not have inhibitory effects
- L-type Ca^2+ current, % of the beginning amplitude (L-type Ca^2+ current; 1 μM mibefradil, after 10 minutes, whole-cell, n=4): up to 70%
- block of L-type Ca^2+ current (L-type Ca^2+ current; 1 μM, INS-1 cells): blocks T- and L-type Ca^2+ current
- reversibility of the inhibition of L-type Ca^2+ current (L-type Ca^2+ current; drug diffusing system, perforated patch): poorly reversible
- effect on development of hyperinsulinemia [9]: prevented and reversed development of hyperinsulinemia
- inhibitory effect on T-type Ca^2+ current (T-type Ca^2+ current [10]): potent inhibitory effect
- basal insulin secretion relative to control (NIT-1 cells [11]): less than 40
- concentration of intracellular mibefradil ([12]; cells incubated with 20 μM mibefradil for one minute, 3 washes, n=3): 3.18 ± 0.78 µM
- share of mibefradil detected in the supernatants after lysis of the cells [12, 14]: 92%
- share of mibefradil found in the pellets after washing with methanol [12, 14]: 0%
- effect on cytokine-induced cell death (NIT-1 cells [13]): reduced β-cells death induced by cytokines
- effect on cytokine-induced DNA fragmentation (β-TC3 cells [1]): prevented cytokine-induced DNA fragmentation

SMILES: CN(N=O)C(=O)N[C@H]1C(O)O[C@H](CO)[C@@H](O)[C@@H]1O (mixture of isomers) [streptozotocin]
- calcium influx on stimulation by 50 KCl (INS-1 cells [8]; [15]): reduced calcium influx compared to control cells
- change in basal calcium (INS-1 cells [8]; [15]): two-fold increase in basal calcium

SMILES: CC(C)[C@H]1c2ccc(F)cc2CC[C@]1(O)CCN(C)CCCc1nc2ccccc2[nH]1.Cl [dm-mibefradil, (1S,2S)-2-[2-[[3-(2-Benzimidazolyl)propyl]methylamino]ethyl]-6-fluoro-1,2,3,4-tetrahydro-1-isopropyl-2-napthyl hydroxy hydrochloride]
- effect on L-type Ca^2+ current from inside of cells (L-type Ca^2+ current; whole-cell): specifically blocked
